Reference: US20140357579A1, “SYNTHETIC PEPTIDE AMIDES AND DIMERS THEREOF” (priority 2006, published 2014)
Where two headings read alike, the source gives them in different places. Square brackets hold non-standard residues; d marks the D form. Side chains are listed from the residue outwards. Peptide text beside a SMILES is read from it. dOrn = NCCC[C@@H](N)C(=O)O; Inp = O=C(O)C1CCNCC1

Key:
[1] = target: T1, mouse kappa opioid receptor (mKOR) (Mus musculus, UniProt P33534); assay: Inhibition of forskolin-stimulated cAMP production in R1.G1 cells (TR-FRET cAMP immunoassay); assay type: cell-based; conditions: for EC50: inhibition of forskolin-stimulated cAMP
T1 construct: a mouse thymoma cell line that expresses only the kappa-opioid receptor and no other opioid receptor subtype; host or cells: R1.G1 mouse thymoma cells

[2] = target: T2, human kappa opioid receptor (hKOR) (Homo sapiens, UniProt P41145); assay: NFAT-luciferase reporter assay in HEK-293 cells transfected with human kappa opioid receptor and chimeric G-protein; assay type: cell-based; conditions: for EC50: transfected HEK-293 cells, luciferase reporter
T2 construct: expressed in transfected cells; host or cells: HEK-293 cells (ATCC), transient transfection with pcDNA3-hOPRK1

[3] = HEK293, percent maximal activation compared to full induction by known kappa agonists, read-out: hKOR Efficacy(%)
[4] = R1.G1 cells, read-out: mKOR Efficacy(%)
[5] = percent maximal activation compared to full induction by known kappa agonists
[6] = R1.G1 cells, read-out: mKOR EC50
[7] = read-out: mKOR Efficacy(%), R1.G1 cells
[8] = HEK293, read-out: hKOR Efficacy(%), percent maximal activation compared to full induction by known kappa agonists

T2 sequence (P41145 whole entry): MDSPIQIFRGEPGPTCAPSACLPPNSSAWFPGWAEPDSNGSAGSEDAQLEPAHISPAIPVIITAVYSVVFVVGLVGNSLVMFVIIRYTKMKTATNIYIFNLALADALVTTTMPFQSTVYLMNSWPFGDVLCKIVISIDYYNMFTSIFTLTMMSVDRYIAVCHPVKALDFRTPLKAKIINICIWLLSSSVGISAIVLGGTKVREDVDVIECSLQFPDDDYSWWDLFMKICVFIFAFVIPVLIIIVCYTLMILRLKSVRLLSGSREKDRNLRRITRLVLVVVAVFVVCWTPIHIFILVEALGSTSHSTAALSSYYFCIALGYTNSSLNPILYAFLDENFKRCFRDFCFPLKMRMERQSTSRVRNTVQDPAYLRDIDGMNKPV
T1 sequence (P33534 whole entry): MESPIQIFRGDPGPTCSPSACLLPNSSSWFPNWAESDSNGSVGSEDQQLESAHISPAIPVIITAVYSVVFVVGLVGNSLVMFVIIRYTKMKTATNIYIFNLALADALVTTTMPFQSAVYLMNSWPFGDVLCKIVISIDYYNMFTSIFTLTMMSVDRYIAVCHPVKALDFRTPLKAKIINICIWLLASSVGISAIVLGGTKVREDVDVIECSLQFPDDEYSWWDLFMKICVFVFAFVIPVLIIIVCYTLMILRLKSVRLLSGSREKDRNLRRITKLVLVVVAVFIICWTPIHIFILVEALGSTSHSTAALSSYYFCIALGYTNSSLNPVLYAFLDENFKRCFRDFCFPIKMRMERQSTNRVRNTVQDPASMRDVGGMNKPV

Row | Structure (SMILES) | mKOR Efficacy(%) ([1]; R1.G1 cells) | Emax [2, 3] [%] | EC50 ([2]; read-out: hKOR EC50) [nM] | hKOR Efficacy(%) [2, 5] [%] | further results
1 | CC(C)C[C@@H](NC(=O)[C@@H](Cc1ccccc1)NC(=O)[C@H](N)Cc1ccccc1)C(=O)N[C@H](CCCN)C(=O)N1CCC(CCCC(=O)O)CC1 [Compound 12, D-Phe-D-Phe-D-Leu-D-Orn-[4-(4-piperidinyl)-butanoic acid]-OH] | 100 | 99 | 0.3 |  | 
2 | Cc1cnc(CNC(=O)[C@@H](CCCCN)NC(=O)[C@@H](CC(C)C)NC(=O)[C@@H](Cc2ccccc2)NC(=O)[C@H](N)Cc2ccccc2)cn1 [Compound 38] |  | 100 |  |  | Emax [1, 4]: 87%
3 | CC(C)C[C@@H](NC(=O)[C@@H](Cc1ccccc1)NC(=O)[C@H](N)Cc1ccccc1)C(=O)N[C@H](CCCN)C(=O)N1CCC(N2CCC[C@H]2C(=O)O)CC1 [Compound 10, D-Phe-D-Phe-D-Leu-D-Orn-[N-(4-piperidinyl)-L-proline]-OH] | 99 |  | 0.12 | 92 | 
4 | CC(C)C[C@@H](NC(=O)[C@@H](Cc1ccccc1)NC(=O)[C@H](N)Cc1ccccc1)C(=O)N[C@H](CCCN)C(=O)NCCCC[C@H](NC(=O)[C@H](N)CCCN)C(=O)O [Compound 42] |  | 95 | 0.27 |  | EC50 [1, 6]: 0.24 nM; Emax [1, 4]: 97%
5 | CC(C)C[C@@H](NC(=O)[C@@H](Cc1ccccc1)NC(=O)[C@H](N)Cc1ccccc1)C(=O)N[C@H](CCCN)C(=O)N1CCC(N)(C(=O)O)CC1 [Compound 6, D-Phe-D-Phe-D-Leu-D-Orn-[omega(4-Aminopiperidine-4-carboxylic acid)]-OH] | 100 |  | 0.17 | 107 | 
6 | CC(C)C[C@@H](NC(=O)[C@@H](Cc1ccccc1)NC(=O)[C@H](N)Cc1ccccc1)C(=O)N[C@H](CCCN)C(=O)N1CCC(C(=O)O)CC1 [Compound 9, D-Phe-D-Phe-D-Leu-D-Orn-[Isonipecotic acid]-OH] (H-[dF][dF][dL][dOrn][Inp]-OH; N-terminus assumed) | 92 | 134 | 0.39 |  | 
7 | CC(C)C[C@@H](NC(=O)[C@@H](Cc1ccccc1)NC(=O)[C@H](N)Cc1ccccc1)C(=O)N[C@H](CCCN)C(=O)NCCN1CCN(CC(=O)O)CC1 [Compound 1, D-Phe-D-Phe-D-Leu-D-Orn-[4-(2-aminoethyl)-1-carboxymethyl-piperazine]-OH] | 98 |  | 0.49 | 102 | 
8 | CC(C)C[C@@H](NC(=O)[C@@H](Cc1ccccc1)NC(=O)[C@H](N)Cc1ccccc1)C(=O)N[C@H](CCCCN)C(=O)N1CCN(c2cnccn2)CC1 [Compound 27, D-Phe-D-Phe-D-Leu-D-Lys-[2-(piperazin-1-yl)pyrazine amide]] | 85 |  |  | 100 | 
9 | CC(C)C[C@@H](NC(=O)[C@@H](Cc1ccccc1)NC(=O)[C@H](N)Cc1ccccc1)C(=O)N[C@H](CCCCN)C(=O)NCC1OCCO1 [Compound 25] | 85 |  |  | 98 | 
10 | CCN1CCCN(C(=O)[C@@H](CCCN)NC(=O)[C@@H](CC(C)C)NC(=O)[C@@H](Cc2ccccc2)NC(=O)[C@H](N)Cc2ccccc2)CC1 [Compound 18, D-Phe-D-Phe-D-Leu-D-Orn-[4-ethylhomopiperazine amide]] | 99 | 99 |  |  | 
11 | CC(C)C[C@@H](NC(=O)[C@H](N)Cc1ccccc1)C(=O)N[C@H](CCCN)C(=O)N[C@@H](CCCCNC(=O)[C@@H](CCCN)NC(=O)[C@@H](CC(C)C)NC(=O)[C@@H](Cc1ccccc1)NC(=O)[C@H](N)Cc1ccccc1)C(=O)O [Compound 40] |  |  |  |  | Emax [1, 7]: 96%; Emax [2, 8]: 83%; EC50 ([2]; hKOR EC50 (nM)): 0.26 nM
12 | CC(C)C[C@@H](NC(=O)[C@@H](Cc1ccccc1)NC(=O)[C@H](N)Cc1ccccc1)C(=O)N[C@H](CCCCN)C(=O)N1CCN(C(=O)c2ccccc2)CC1 [Compound 33, D-Phe-D-Phe-D-Leu-D-Lys-[phenyl(piperazin-1-yl)methanone amide]] | 92 |  |  | 94 | 
13 | CC(C)C[C@@H](NC(=O)[C@@H](Cc1ccccc1)NC(=O)[C@H](N)Cc1ccccc1)C(=O)N[C@H](CCCN)C(=O)N1CCC(CC(N)C(=O)O)CC1 (stereo partly drawn) [Compound 7, D-Phe-D-Phe-D-Leu-D-Orn-[ω(D/L-2-Amino-3-(4-N-piperidinyl)propionic acid)]-OH] | 102 |  | 0.14 | 104 | 
14 | CC(C)C[C@@H](NC(=O)[C@@H](Cc1ccccc1)NC(=O)[C@H](N)Cc1ccccc1)C(=O)N[C@H](CCCCN)C(=O)N1CCN(S(=O)(=O)N(C)C)CC1 [Compound 30, D-Phe-D-Phe-D-Leu-D-Lys-[N,N-dimethylpiperazine-1-sulfonamide amide]] | 86 |  |  | 101 | 
15 | CC(C)C[C@@H](NC(=O)[C@@H](Cc1ccccc1)NC(=O)[C@H](N)Cc1ccccc1)C(=O)N[C@H](CCCCN)C(=O)NCc1ccc2[nH]c(=O)[nH]c2c1 [Compound 37, D-Phe-D-Phe-D-Leu-D-Lys-[5-(aminomethyl)-1H-benzo[d]imidazol-2(3H)-one amide]] | 87 |  |  | 99 | 
16 | CC(C)C[C@@H](NC(=O)[C@@H](Cc1ccccc1)NC(=O)[C@H](N)Cc1ccccc1)C(=O)N[C@H](CCCN)C(=O)N1CCNC(C(=O)O)C1 (stereo partly drawn) [Compound 8, D-Phe-D-Phe-D-Leu-D-Orn-[omega(D/L-piperazine-2-carboxylic acid)]-OH] | 102 |  | 0.16 | 93 | 
17 | CC(C)C[C@@H](NC(=O)[C@@H](Cc1ccccc1)NC(=O)[C@H](N)Cc1ccccc1)C(=O)N[C@H](CCCCN)C(=O)N1CCS(=O)(=O)CC1 [Compound 34, D-Phe-D-Phe-D-Leu-D-Lys-[thiolmorpholine-1,1-dioxide amide]] | 89 |  |  | 103 | 
18 | CC(C)C[C@@H](NC(=O)[C@@H](Cc1ccccc1)NC(=O)[C@H](N)Cc1ccccc1)C(=O)N[C@H](CCCN)C(=O)NCCCC[C@H](NC(=O)[C@@H](CCCN)NC(=O)[C@@H](CC(C)C)NC(=O)[C@@H](Cc1ccccc1)NC(=O)[C@H](N)Cc1ccccc1)C(N)=O [Compound 43] (H-[dF][dF][dL][dOrn]K([dOrn-dL-dF-dF])-NH2) |  |  |  |  | EC50 ([1]; mKOR EC50 (nM), R1.G1 cells): 0.08 nM; Emax [1, 7]: 101%; Emax [2, 8]: 94%; EC50 ([2]; hKOR EC50 (nM)): 0.13 nM
19 | CC(C)C[C@@H](NC(=O)[C@@H](Cc1ccccc1)NC(=O)[C@H](N)Cc1ccccc1)C(=O)N[C@H](CCCCN)C(=O)N1CCN(c2nccs2)CC1 [Compound 29, D-Phe-D-Phe-D-Leu-D-Lys-[2-(piperazin-1-yl)thiazole amide]] | 85 |  |  | 92 | 
20 | CC(C)C[C@@H](NC(=O)[C@@H](Cc1ccccc1)NC(=O)[C@H](N)Cc1ccccc1)C(=O)N[C@H](CCCCN)C(=O)N1CCN(c2ncccn2)CC1 [Compound 26, D-Phe-D-Phe-D-Leu-D-Lys-[2-(piperazin-1-yl)pyrimidine amide]] | 78 |  |  | 98 | 
21 | CC(C)C[C@@H](NC(=O)[C@@H](Cc1ccccc1)NC(=O)[C@H](N)Cc1ccccc1)C(=O)N[C@H](CCCN)C(=O)NCCCC[C@@H](NC(=O)[C@H](N)CCCN)C(=O)O [Compound 45] |  | 96 | 0.28 |  | EC50 [1, 6]: 0.05 nM; Emax [1, 4]: 96%
22 | CC(C)C[C@@H](NC(=O)[C@@H](Cc1ccccc1)NC(=O)[C@H](N)Cc1ccccc1)C(=O)N[C@H](CCCN)C(=O)N1CCCN(C(=N)N)CC1 [Compound 16, D-Phe-D-Phe-D-Leu-D-Orn-[4-Amidinohomopiperazine amide]] |  | 90 | 0.12 |  | Emax [1, 4]: 99%
23 | CC(C)C[C@@H](NC(=O)[C@@H](Cc1ccccc1)NC(=O)[C@H](N)Cc1ccccc1)C(=O)N[C@H](CCCN)C(=O)N1CCC(CC(=O)O)CC1 [Compound 2, D-Phe-D-Phe-D-Leu-D-Orn-[4-Carboxymethyl-piperidine]-OH] | 97 |  | 0.13 | 99 | 
24 | CC(C)C[C@@H](NC(=O)[C@@H](Cc1ccccc1)NC(=O)[C@H](N)Cc1ccccc1)C(=O)N[C@H](CCCN)C(=O)NCCCC[C@H](NC(=O)[C@H](N)CCCN)C(=O)N1CCNCC1 [Compound 44] |  | 93 | 0.25 |  | EC50 [1, 6]: 1.3 nM; Emax [1, 4]: 91%
25 | CC(C)C[C@@H](NC(=O)[C@@H](Cc1ccccc1)NC(=O)[C@H](N)Cc1ccccc1)C(=O)N[C@H](CCCN)C(=O)NCCN1CCN(CC(N)=O)CC1 [Compound 13, D-Phe-D-Phe-D-Leu-D-Orn-[4-(2-aminoethyl)-1-carboxymethyl-piperazine]-NH2] | 96 |  |  | 96 | 
